Measured values taken from patent US9212204B2, “Treatment of rett syndrome using glycyl-L-2-methylprolyl-L-glutamic acid” (priority 2011, dated 2015).
Non-standard residues stand in square brackets, D forms with d. Residues, ends and D or L forms follow the SMILES beside them. αMeP = C[C@@]1(C(=O)O)CCCN1

How the values were obtained:
[1] = system: PCNA positive cells in the subventricular zone (SVZ); experiment: PCNA staining, neuroblast proliferation in the subventricular zone; type: in vivo, rat; settings: for number of PCNA positive cells in the SVZ: 3 days after treatment
Experimental: To carry out these studies, tissues were fixed and embedded in paraffin and sections obtained using standard methods. Coronal sections (6 μm) containing the level of the hippocampus were cut and mounted on chrome-alum-coated slides for staining. The sections were deparaffinized in xylene, dehydrated in a series of ethanol and incubated in 0.1 M phosphate buffered saline (PBS).
Primary antibodies against glial fibrillary acidic protein (GFAP) and proliferating cell nuclear antigen (PCNA) were used to mark reactive glial cells and cells undergoing apoptosis and proliferation, respectively. For antigen unmasking (caspase-3 and PCNA staining), sections were heated in 10 mM sodium citrate buffer (pH 6.0) for 1 min at high power. All sections were pretreated with 1% […] in 50% methanol for 30 min to quench the endogenous peroxidase activity. Then either 1.5% normal horse serum or 2.5% normal sheep serum in PBS was applied for 1 h at room temperature to block nonspecific background staining. The sections were then incubated with following primary antibodies: monoclonal mouse anti-GFAP antibody (Sigma, St. Louis, Mo., U.S.A. diluted 1:500); mouse anti-PCNA antibody (DAKA, A/S, Denmark, diluted 1:100). After incubation with primary antibodies at 4° C. for 2 d (except for PCNA staining which was incubated overnight) the sections were incubated with biotinylated horse anti-mouse or goat anti-rabbit secondary antibody (1:200, Sigma) at 4° C. overnight. The ExtrAvidin™ (Sigma, 1:200), which had been prepared 1 h before use, was applied for 3 h at room temperature, and then reacted in 0.05% 3,3-diaminobenzidine (DAB) and PBS to produce a brown reaction product. Sections were dehydrated in a series of alcohols to xylene and coverslipped with mounting medium.
Immunohistochemical staining was performed on brain samples taken from both control and G-2-MePE treated groups of young (4 months old), middle-aged (9 months old) and aged rats (18 months old).
Control sections were processed in the same way except the primary antibody was omitted from the incubation solution. The number of PCNA positive cells was counted in the subventricular zone and the GFAP positive cells was scored in the cerebral cortex.
The subventricular zone (SVZ) and the dentate gyrus (DG) are two brain regions hosting adult neurogenesis. […]
Eighteen month old male rats were treated intraperitoneally with single does of G2-MePE (doses of either 0, 0.012, 0.12. 1.2, 12 mg/kg). […] The number of PCNA positive cells was counted in the SVZ and the number of cells was then averaged as cells/mm depending on the length of ventricle wall used for counting (FIG. 19A). […]

17 month old rats = experiment: 8-arm radial maze test, spatial working memory; type: in vivo, rat; settings: for Working Correct Choice WCC8-12 across days: 9-day washout
Text: Five months after the original experiment the now 17 month old rats were retested for spatial working memory in a radial arm maze.
The apparatus consists of a central platform communicating with 8 identical arms, each with a food cup at the end of the arm
Rats were partially food-deprived for at least 10 days prior to, and throughout the radial maze procedure.
The maze was assembled and positioned so that the experimenter could clearly observe the rats' behavior from a predetermined location. The experimenter numbered the arms of the maze according to their orientation from one to eight in a clock-wise direction.
On day one the doors were inserted into the arms and each rat was confined in the central platform with 20 food pellets for 5 minutes. […] The following day the rats were allowed five minutes to explore the whole maze. All arms were baited with two food pellets in the food cup located at the end of each arm, and one pellet at both the entrance and middle of each arm. This was repeated for at least five, but up to eight days for rats that explored fewer than eight arms in two consecutive sessions. […] At this point it was decided that one of the old rats that had made only one arm entry on eight of the nine days should be excluded from future testing in this procedure. Otherwise all rats were included regardless of the amount of exploring they performed in pre-training.
30 days before the test (five days after pre-training) the 17 Male Wistar month old rats were implanted (under halothane anesthesia) with sub-cutaneous mini-osmotic pumps (Alzet) to dispense drug continuously for 3 weeks. At the completion of the infusion the pumps were removed and the wounds re-sutured (9-day washout allowed).
3. G-2-MePE low dose (2.4 mg/kg/day) n=13
4. G-2-MePE high dose (12.4 mg/kg/day) n=5
Saline and the low dose groups are comprised of all the rats that received those treatments in phase 1 of this experiment (when the rats were 12 months old) regardless of whether they had the one or three week treatment. One rat in each of the saline and high dose groups have been dropped because of skin tumors.
Working memory testing commenced on the ninth day of washout. Rats received 10 daily training sessions over 12 days. The procedure was the same as for pre-training but only the food cups were baited. Rats had 6 minutes to make up to 16 choices by visiting any of the eight arms. A choice was defined as occurring when all four paws were inside an arm. The experimenter recorded the sequence of arm entries with pen and paper, Sessions were terminated after all eight arms had been entered, 16 choices made, or 6 minutes had elapsed. The time taken to enter all eight arms, when this occurred, was recorded.
An arm choice was considered correct when the rat entered an arm not previously visited. […]

## C[C@@]1(C(=O)N[C@@H](CCC(=O)O)C(=O)O)CCCN1C(=O)CN [Example G-2-MePE, Glycyl-L-2-methylprolyl-L-glutamic acid] (H-Gly-[αMeP]-Glu-OH)
[1]; 1.2 mg/kg i.p., 9 month old rats, p<0.005
  number of PCNA positive cells in the SVZ: significant increase
[1]; 0.012-12 mg/kg single i.p. dose, 18 month old rats
  dose dependence of effect on neurogenesis: dose-dependent effect
[1]; 12 mg/kg single i.p. dose, 18 month old rats, vs vehicle p<0.05
  number of PCNA positive cells in the SVZ: significant increase
[1]; highest dose, vs vehicle treated rat, FIG. 19B
  PCNA and doublecortin staining: increase
17 month old rats; all groups, 10 days of testing
  Correct Choice CC8-12: no significant group effect
17 month old rats; high dose 12.4 mg/kg/day s.c. 3 weeks
  Working Correct Choice WCC8-12 across days: greatest improvement across days
17 month old rats; higher dose, vs vehicle treated rats, p<0.05, FIG. 18B
  correct maze choices averaged across days: more correct entries
17 month old rats; low dose 2.4 mg/kg/day s.c. 3 weeks, vs saline
  Working Correct Choice WCC8-12 across days: very little difference
